# Measured values from PubChem BioAssay (NCI).
#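 These data come from cells grown in 96-well plates and exposed to compound for 48 hours at five concentrations. GI50: concentration for 50% inhibition of growth. Definition used: TGI = concentration required for complete inhibition of growth.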
# Legend:
# Assay in all cases: growth of human tumour cells (NCI), 48 h
# [1] = system: ACHN renal
# [2] = system: SK-MEL-28 melanoma
# [3] = system: MOLT-4 leukemia
# [4] = system: HOP-92 NSCLC
# [5] = system: OVCAR-4 ovarian
# [6] = system: K-562 leukemia
# [7] = system: KM12 colon
# [8] = system: SK-OV-3 ovarian
# [9] = system: LOX IMVI melanoma
# [10] = system: EKVX NSCLC
# [11] = system: SF-539 CNS
# [12] = system: IGROV1 ovarian
# [13] = system: CCRF-CEM leukemia
# [14] = system: HS 578T breast
# [15] = system: 786-0 renal
# [16] = system: NCI-H23 lung
# [17] = system: MDA-MB-468 breast
# [18] = system: TK-10 renal
# [19] = system: HT29 colon
# [20] = system: MALME-3M melanoma
# [21] = system: HL-60(TB) leukemia
# [22] = system: MDA-MB-435
# [23] = system: HOP-62 NSCLC
# [24] = system: UACC-257 melanoma
# [25] = system: SK-MEL-2 melanoma
# [26] = system: SNB-19 CNS
# [27] = system: HCC-2998 colon
# [28] = system: CAKI-1 renal
# [29] = system: NCI/ADR-RES ovarian
# [30] = system: SK-MEL-5 melanoma
# [31] = system: PC-3 prostate
# [32] = system: OVCAR-8 ovarian
# [33] = system: OVCAR-5 ovarian
# [34] = system: NCI-H460 lung
# [35] = system: SW-620 colon
# [36] = system: HCT-116 colon
# [37] = system: M14 melanoma
# [38] = system: MDA-MB-231 breast
# [39] = system: SNB-75 CNS
# [40] = system: COLO 205 colon
# [41] = system: SN12C renal
# [42] = system: HCT-15 colon
# [43] = system: NCI-H522 lung
# [44] = system: RPMI-8226 leukemia
# [45] = system: SF-268 CNS
# [46] = system: NCI-H226 lung
# [47] = system: BT-549 breast
# [48] = system: UACC-62 melanoma
# [49] = system: DU-145 prostate
# [50] = system: T-47D breast
# [51] = system: A498 renal
# [52] = system: U251 CNS
# [53] = system: A549 NSCLC
# [54] = system: SR leukemia
# [55] = system: RXF 393 renal
# [56] = system: OVCAR-3 ovarian
# [57] = system: MCF7 breast
# [58] = system: UO-31 renal
# [59] = system: SF-295 CNS
structure (smiles),measurement,setting,value
S=C(Nc1ccc(OCc2nc3ccc(Cl)cc3[nH]2)cc1)NC1CCCCC1,GI50,[1],4.99 µM
same,TGI,[1],17.4 µM
same,GI50,[2],12.1 µM
same,TGI,[2],24.5 µM
same,GI50,[3],4.01 µM
same,TGI,[3],13.9 µM
same,GI50,[4],3.27 µM
same,TGI,[4],14.7 µM
same,GI50,[5],6.82 µM
same,TGI,[5],25.1 µM
same,GI50,[6],3.57 µM
same,TGI,[6],15.1 µM
same,GI50,[7],4.8 µM
same,TGI,[7],17.5 µM
same,GI50,[8],13.4 µM
same,TGI,[8],27 µM
same,GI50,[9],2.83 µM
same,TGI,[9],11.5 µM
same,GI50,[10],7.23 µM
same,TGI,[10],20.9 µM
same,GI50,[11],12.1 µM
same,TGI,[11],24.5 µM
same,GI50,[12],6.95 µM
same,TGI,[12],20.2 µM
same,GI50,[13],3.59 µM
same,TGI,[13],16.6 µM
same,GI50,[14],7.33 µM
same,TGI,[14],28.7 µM
same,GI50,[15],7.4 µM
same,TGI,[15],21.4 µM
same,GI50,[16],8.56 µM
same,TGI,[16],21.4 µM
same,GI50,[17],2.97 µM
same,TGI,[17],13.2 µM
same,GI50,[18],12.4 µM
same,TGI,[18],24.9 µM
same,GI50,[19],4.44 µM
same,TGI,[19],16 µM
same,GI50,[20],11.6 µM
same,TGI,[20],23.8 µM
same,GI50,[21],2.63 µM
same,TGI,[21],13.2 µM
same,GI50,[22],6.97 µM
same,TGI,[22],22 µM
same,GI50,[23],12.3 µM
same,TGI,[23],26.4 µM
same,GI50,[24],7.53 µM
same,TGI,[24],21.6 µM
same,GI50,[25],11.4 µM
same,TGI,[25],24.5 µM
same,GI50,[26],10.7 µM
same,TGI,[26],22.6 µM
same,GI50,[27],3.12 µM
same,TGI,[27],12.5 µM
same,GI50,[28],3.47 µM
same,TGI,[28],15.5 µM
same,GI50,[29],9.57 µM
same,TGI,[29],25.3 µM
same,GI50,[30],5.79 µM
same,TGI,[30],19.5 µM
same,GI50,[31],4.29 µM
same,TGI,[31],18.7 µM
same,GI50,[32],13.1 µM
same,TGI,[32],28.5 µM
same,GI50,[33],10.8 µM
same,TGI,[33],22.6 µM
same,GI50,[34],3.96 µM
same,TGI,[34],14.2 µM
same,GI50,[35],9.55 µM
same,TGI,[35],24.2 µM
same,GI50,[36],5.99 µM
same,TGI,[36],21.5 µM
same,GI50,[37],6.73 µM
same,TGI,[37],22.5 µM
same,GI50,[38],7.42 µM
same,TGI,[38],20.4 µM
same,GI50,[39],1.79 µM
same,TGI,[39],15.2 µM
same,GI50,[40],10.2 µM
same,TGI,[40],27.6 µM
same,GI50,[41],8.32 µM
same,TGI,[41],21.2 µM
same,GI50,[42],5.5 µM
same,TGI,[42],18.7 µM
same,GI50,[43],2.9 µM
same,TGI,[43],12.6 µM
same,GI50,[44],7.09 µM
same,TGI,[44],41.8 µM
same,GI50,[45],8.19 µM
same,TGI,[45],24.5 µM
same,GI50,[46],10.8 µM
same,TGI,[46],29.1 µM
same,GI50,[47],15 µM
same,TGI,[47],29.1 µM
same,GI50,[48],6.68 µM
same,TGI,[48],20.4 µM
same,GI50,[49],11.3 µM
same,TGI,[49],27.7 µM
same,GI50,[50],7.75 µM
same,TGI,[50],26.2 µM
same,GI50,[51],11.2 µM
same,TGI,[51],23.8 µM
same,GI50,[52],11.7 µM
same,TGI,[52],24.8 µM
same,GI50,[53],6.51 µM
same,TGI,[53],21.6 µM
same,GI50,[54],2.61 µM
same,TGI,[54],8.45 µM
same,GI50,[55],6.21 µM
same,TGI,[55],20.5 µM
same,GI50,[56],4.44 µM
same,TGI,[56],18.8 µM
same,GI50,[57],2.87 µM
same,TGI,[57],12.4 µM
same,GI50,[58],3.88 µM
same,TGI,[58],16.6 µM
same,GI50,[59],9.72 µM
same,TGI,[59],22.9 µM
CCc1ccccc1NC(=O)N/C(N)=N/c1nc2ccccc2s1,GI50,[1],0.0793 µM
same,TGI,[1],6.21 µM
same,GI50,[2],2.83 µM
same,TGI,[2],21.3 µM
same,GI50,[3],0.0628 µM
same,TGI,[3],18.7 µM
same,GI50,[4],3.09 µM
same,TGI,[4],29.6 µM
same,GI50,[5],1.67 µM
same,TGI,[5],24.7 µM
same,GI50,[6],0.0233 µM
same,TGI,[6],14.4 µM
same,GI50,[7],0.0381 µM
same,TGI,[7],11.1 µM
same,GI50,[8],0.15 µM
same,TGI,[8],33.6 µM
same,GI50,[9],0.0431 µM
same,TGI,[9],4.62 µM
same,GI50,[10],0.0503 µM
same,TGI,[10],16.1 µM
same,GI50,[11],0.0211 µM
same,TGI,[11],0.0642 µM
same,GI50,[12],0.0567 µM
same,TGI,[12],15.2 µM
same,GI50,[13],0.0382 µM
same,TGI,[13],13.5 µM
same,GI50,[14],0.0281 µM
same,TGI,[14],7.27 µM
same,GI50,[15],0.0898 µM
same,TGI,[15],5.14 µM
same,GI50,[16],0.0454 µM
same,TGI,[16],5.48 µM
same,GI50,[17],0.0233 µM
same,TGI,[17],0.0625 µM
same,GI50,[18],4.49 µM
same,TGI,[18],50 µM
same,GI50,[19],0.0316 µM
same,TGI,[19],0.135 µM
same,GI50,[20],0.0622 µM
same,TGI,[20],11.3 µM
same,GI50,[21],0.0334 µM
same,TGI,[21],6.31 µM
same,GI50,[22],< 0.0146 µM
same,TGI,[22],0.0389 µM
same,GI50,[23],0.0696 µM
same,TGI,[23],4.55 µM
same,GI50,[24],4.67 µM
same,TGI,[24],> 54.4 µM
same,GI50,[25],0.0338 µM
same,TGI,[25],10.8 µM
same,GI50,[26],0.0517 µM
same,TGI,[26],14.6 µM
same,GI50,[27],0.0291 µM
same,TGI,[27],3.05 µM
same,GI50,[28],0.0631 µM
same,TGI,[28],7.2 µM
same,GI50,[29],0.0244 µM
same,TGI,[29],0.0643 µM
same,GI50,[30],0.0311 µM
same,TGI,[30],0.116 µM
same,GI50,[31],0.0528 µM
same,TGI,[31],18.8 µM
same,GI50,[32],0.037 µM
same,TGI,[32],3.52 µM
same,GI50,[33],0.0533 µM
same,TGI,[33],12 µM
same,GI50,[34],0.0354 µM
same,TGI,[34],3.82 µM
same,GI50,[35],0.0422 µM
same,TGI,[35],15.7 µM
same,GI50,[36],0.0377 µM
same,TGI,[36],1.47 µM
same,GI50,[37],0.0286 µM
same,TGI,[37],0.911 µM
same,GI50,[38],0.0405 µM
same,TGI,[38],0.598 µM
same,GI50,[39],< 0.018 µM
same,TGI,[39],4.64 µM
same,GI50,[40],0.0294 µM
same,TGI,[40],0.094 µM
same,GI50,[41],0.0438 µM
same,TGI,[41],6.91 µM
same,GI50,[42],0.0293 µM
same,TGI,[42],7.03 µM
same,GI50,[43],< 0.0167 µM
same,TGI,[43],0.09 µM
same,GI50,[44],0.0445 µM
same,TGI,[44],21.1 µM
same,GI50,[45],0.336 µM
same,TGI,[45],> 100 µM
same,GI50,[46],0.144 µM
same,TGI,[46],1.52 µM
same,GI50,[47],0.091 µM
same,TGI,[47],1.79 µM
same,GI50,[48],0.0383 µM
same,TGI,[48],22.7 µM
same,GI50,[49],0.0483 µM
same,TGI,[49],2.5 µM
same,GI50,[50],15.1 µM
same,TGI,[50],> 100 µM
same,GI50,[51],16.4 µM
same,TGI,[51],45.6 µM
same,GI50,[52],0.037 µM
same,TGI,[52],5.64 µM
same,GI50,[53],0.064 µM
same,TGI,[53],> 38.8 µM
same,GI50,[54],0.12 µM
same,TGI,[54],21.6 µM
same,GI50,[55],0.0225 µM
same,TGI,[55],7.53 µM
same,GI50,[56],0.0396 µM
same,TGI,[56],1.55 µM
same,GI50,[57],0.0329 µM
same,TGI,[57],12.3 µM
same,GI50,[58],0.0979 µM
same,TGI,[58],34.6 µM
same,GI50,[59],0.0234 µM
same,TGI,[59],2.04 µM
